Test system: 361931-004-R-J1-PDC multicell spheroid viability
Test: Anticancer human tumor 361931-004-R-J1-PDC patient-derived colon adenocarcinoma cell line growth inhibition [PI3K]
Details: for viability, T/C: stronger effect = lower value
Method in brief: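 Tumor cells were combined with HUVEC and MSCs into spheroids, then dosed with PI3K-inhibitor combinations over half-log ranges capped near clinical Cmax or 10 microM.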

[1] = curve of first compound, second compound 0.0316 µM
[2] = curve of first compound, second compound 0.1 µM
[3] = curve of first compound, second compound 0.316 µM
[4] = curve of first compound, second compound 1 µM
[5] = curve of first compound, second compound 3.16 µM
[6] = curve of first compound, second compound 10 µM
[7] = second compound 0.0316 µM, first compound 0.0316 µM
[8] = second compound 0.0316 µM, first compound 0.1 µM
[9] = second compound 0.0316 µM, first compound 0.316 µM
[10] = second compound 0.0316 µM, first compound 1 µM
[11] = second compound 0.0316 µM, first compound 3.16 µM
[12] = second compound 0.0316 µM, first compound 10 µM
[13] = second compound 0.1 µM, first compound 0.0316 µM
[14] = second compound 0.1 µM, first compound 0.1 µM
[15] = second compound 0.1 µM, first compound 0.316 µM
[16] = second compound 0.1 µM, first compound 1 µM
[17] = second compound 0.1 µM, first compound 3.16 µM
[18] = second compound 0.1 µM, first compound 10 µM
[19] = second compound 0.316 µM, first compound 0.0316 µM
[20] = second compound 0.316 µM, first compound 0.1 µM
[21] = second compound 0.316 µM, first compound 0.316 µM
[22] = second compound 0.316 µM, first compound 1 µM
[23] = second compound 0.316 µM, first compound 3.16 µM
[24] = second compound 0.316 µM, first compound 10 µM
[25] = second compound 1 µM, first compound 0.0316 µM
[26] = second compound 1 µM, first compound 0.1 µM
[27] = second compound 1 µM, first compound 0.316 µM
[28] = second compound 1 µM, first compound 1 µM
[29] = second compound 1 µM, first compound 3.16 µM
[30] = second compound 1 µM, first compound 10 µM
[31] = second compound 3.16 µM, first compound 0.0316 µM
[32] = second compound 3.16 µM, first compound 0.1 µM
[33] = second compound 3.16 µM, first compound 0.316 µM
[34] = second compound 3.16 µM, first compound 1 µM
[35] = second compound 3.16 µM, first compound 3.16 µM
[36] = second compound 3.16 µM, first compound 10 µM
[37] = second compound 10 µM, first compound 0.0316 µM
[38] = second compound 10 µM, first compound 0.1 µM
[39] = second compound 10 µM, first compound 0.316 µM
[40] = second compound 10 µM, first compound 1 µM
[41] = second compound 10 µM, first compound 3.16 µM
[42] = second compound 10 µM, first compound 10 µM
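Also: spheroids exposed to agents for seven days before readout.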

For CNC(=O)c1ccc(N2C(=S)N(c3ccc(C#N)c(C(F)(F)F)c3)C(=O)C2(C)C)cc1F + CC(Nc1ncnc2nc[nH]c12)c1cc2cccc(Cl)c2c(=O)n1-c1ccccc1, the IC50 [1] was > 10 µM, the IC50 [2] was > 10 µM and the IC50 [3] was > 10 µM. The IC50 [4] was > 10 µM, the IC50 [5] was > 10 µM and the IC50 [6] was > 10 µM. It also gave a viability, T/C [7] of 97.8%, a viability, T/C [8] of 103% and a viability, T/C [9] of 97.7%. It also gave a viability, T/C [10] of 96.6%, a viability, T/C [11] of 103% and a viability, T/C [12] of 85.7%. The viability, T/C [13] was 110%, the viability, T/C [14] was 102% and the viability, T/C [15] was 97.8%. The viability, T/C [16] was 93.7%, the viability, T/C [17] was 106% and the viability, T/C [18] was 103%. The viability, T/C [19] was 102%, the viability, T/C [20] was 93% and the viability, T/C [21] was 97.9%. It also gave a viability, T/C [22] of 105%, a viability, T/C [23] of 101% and a viability, T/C [24] of 97.3%. For the same compound, the viability, T/C [25] was 101%, the viability, T/C [26] was 106% and the viability, T/C [27] was 99.4%. For the same compound, the viability, T/C [28] was 104%, the viability, T/C [29] was 106% and the viability, T/C [30] was 97.2%. For the same compound, the viability, T/C [31] was 101%, the viability, T/C [32] was 109% and the viability, T/C [33] was 97.1%. The viability, T/C [34] was 101%, the viability, T/C [35] was 104% and the viability, T/C [36] was 93.4%. The viability, T/C [37] was 107%, the viability, T/C [38] was 105% and the viability, T/C [39] was 104%. It also gave a viability, T/C [40] of 94.2%, a viability, T/C [41] of 112% and a viability, T/C [42] of 96.3%.

With CNC(=O)c1ccc(N2C(=S)N(c3ccc(C#N)c(C(F)(F)F)c3)C(=O)C2(C)C)cc1F + Cc1nc(NC(=O)N2CCCC2C(N)=O)sc1-c1ccnc(C(C)(C)C(F)(F)F)c1 the IC50 [1] was > 10 µM, the IC50 [2] was > 10 µM and the IC50 [3] was > 10 µM. The IC50 [4] was > 10 µM, the IC50 [5] was > 10 µM and the IC50 [6] was > 10 µM. It also gave a viability, T/C [7] of 113%, a viability, T/C [8] of 101% and a viability, T/C [9] of 91%. It also gave a viability, T/C [10] of 90.8%, a viability, T/C [11] of 98% and a viability, T/C [12] of 99.6%. For the same compound, the viability, T/C [13] was 106%, the viability, T/C [14] was 101% and the viability, T/C [15] was 87.4%. The viability, T/C [16] was 94.4%, the viability, T/C [17] was 93.3% and the viability, T/C [18] was 86.6%. It also gave a viability, T/C [19] of 99.2%, a viability, T/C [20] of 90.8% and a viability, T/C [21] of 100%. The viability, T/C [22] was 104%, the viability, T/C [23] was 104% and the viability, T/C [24] was 95.8%. The viability, T/C [25] was 94.1%, the viability, T/C [26] was 93.5% and the viability, T/C [27] was 80%. For the same compound, the viability, T/C [28] was 94.5%, the viability, T/C [29] was 94.1% and the viability, T/C [30] was 85.6%. It also gave a viability, T/C [31] of 83.2%, a viability, T/C [32] of 82.9% and a viability, T/C [33] of 91.3%. The viability, T/C [34] was 84.2%, the viability, T/C [35] was 98% and the viability, T/C [36] was 70.3%. For the same compound, the viability, T/C [37] was 70.2%, the viability, T/C [38] was 67.1% and the viability, T/C [39] was 59.3%. The viability, T/C [40] was 69.1%, the viability, T/C [41] was 76.1% and the viability, T/C [42] was 45.2%.

For C=CC(=O)N1CCN(c2nc(=O)n(-c3c(C)ccnc3C(C)C)c3nc(-c4c(O)cccc4F)c(F)cc23)C(C)C1 (stereo not drawn), the viability, T/C (compound 0.0316 µM) was 99.5% [middle of 4 runs], the viability, T/C (compound 0.1 µM) was 95.4% [middle of 4 runs] and the viability, T/C (compound 0.316 µM) was 105% [middle of 4 runs]. For the same compound, the viability, T/C (compound 1 µM) was 103% [middle of 4 runs], the viability, T/C (compound 3.16 µM) was 100% [middle of 4 runs] and the viability, T/C (compound 10 µM) was 99.2% [middle of 4 runs]. The IC50 (curve of compound) was > 10 µM.

Compound CCCS(=O)(=O)Nc1ccc(F)c(C(=O)c2c[nH]c3ncc(-c4ccc(Cl)cc4)cc23)c1F + CC(Nc1ccc2c(c1)OCCn1cc(N3C(=O)OCC3C(F)F)nc1-2)C(N)=O has an IC50 (curve of first compound, second compound 0.00316 µM) of 5.17 µM, an IC50 (curve of first compound, second compound 0.01 µM) of 5.13 µM and an IC50 [1] of 5.27 µM. It also gave an IC50 [2] of 4.34 µM, an IC50 [3] of 4.03 µM and an IC50 [4] of 1.74 µM. The viability, T/C (second compound 0.00316 µM, first compound 0.0316 µM) was 102%, the viability, T/C (second compound 0.00316 µM, first compound 0.1 µM) was 100% and the viability, T/C (second compound 0.00316 µM, first compound 0.316 µM) was 84.9%. It also gave a viability, T/C (second compound 0.00316 µM, first compound 1 µM) of 82.8%, a viability, T/C (second compound 0.00316 µM, first compound 3.16 µM) of 83.8% and a viability, T/C (second compound 0.00316 µM, first compound 10 µM) of 4.25%. It also gave a viability, T/C (second compound 0.01 µM, first compound 0.0316 µM) of 101%, a viability, T/C (second compound 0.01 µM, first compound 0.1 µM) of 94.7% and a viability, T/C (second compound 0.01 µM, first compound 0.316 µM) of 81.8%. For the same compound, the viability, T/C (second compound 0.01 µM, first compound 1 µM) was 83.6%, the viability, T/C (second compound 0.01 µM, first compound 3.16 µM) was 83.4% and the viability, T/C (second compound 0.01 µM, first compound 10 µM) was 4.05%. For the same compound, the viability, T/C [7] was 92.3%, the viability, T/C [8] was 86% and the viability, T/C [9] was 85.5%. For the same compound, the viability, T/C [10] was 83%, the viability, T/C [11] was 87.2% and the viability, T/C [12] was 3.87%. It also gave a viability, T/C [13] of 88.5%, a viability, T/C [14] of 81.5% and a viability, T/C [15] of 89.1%. For the same compound, the viability, T/C [16] was 73%, the viability, T/C [17] was 70.2% and the viability, T/C [18] was 4.14%. The viability, T/C [19] was 86.7%, the viability, T/C [20] was 72.6% and the viability, T/C [21] was 63%. The viability, T/C [22] was 73.5%, the viability, T/C [23] was 62.5% and the viability, T/C [24] was 3.6%. The viability, T/C [25] was 74.4%, the viability, T/C [26] was 65.7% and the viability, T/C [27] was 70%. The viability, T/C [28] was 50.3%, the viability, T/C [29] was 46.6% and the viability, T/C [30] was 2.59%.

Source: PubChem BioAssay AID1963979 (Molecular Pharmacology Branch, DTP, NCI, 2024)
